We go through 24 molecules from patent US9777005B2 (Takeda Pharmaceutical Company Limited, priority 2012, dated 2017).

This assay deals with T1, human M1 receptor (hCHRM1) (Homo sapiens, UniProt P11229).
T1 construct: expressed in transfected cells; host or cells: CHO-K1
T1 sequence (P11229 1-460): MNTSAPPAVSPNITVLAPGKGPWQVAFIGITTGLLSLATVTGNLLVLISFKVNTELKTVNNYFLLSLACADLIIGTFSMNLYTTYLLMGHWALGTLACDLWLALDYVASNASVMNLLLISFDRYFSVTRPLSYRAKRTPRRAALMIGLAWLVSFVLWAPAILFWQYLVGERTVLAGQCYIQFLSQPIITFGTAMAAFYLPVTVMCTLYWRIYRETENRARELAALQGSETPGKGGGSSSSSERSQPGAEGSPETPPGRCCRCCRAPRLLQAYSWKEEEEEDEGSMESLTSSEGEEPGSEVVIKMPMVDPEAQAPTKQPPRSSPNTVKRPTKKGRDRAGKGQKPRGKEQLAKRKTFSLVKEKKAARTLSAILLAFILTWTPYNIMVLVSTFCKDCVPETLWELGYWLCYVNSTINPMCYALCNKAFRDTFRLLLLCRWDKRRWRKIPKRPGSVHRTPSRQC
The assay can be described thus: Measurement of M1 receptor positive allosteric modulator (M1PAM) activity, calcium fluorescence (FLIPRtetra) in CHO-K1 cells in the presence of acetylcholine at EC20. In kind it is cell-based. To be noted: in the presence of acetylcholine at EC20 (final 0.6 nM), CHO-K1 cells expressing hCHRM1; for EC50: inflection point of M1PAM activity, read-out: IP value; for activity (%) at 10 μM: test compound 10 μM. The essentials:
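CHO-K1 cells expressing human M1 were loaded with Fluo-4 AM, and compound was added with acetylcholine at EC20 (final 0.6 nM). Calcium fluorescence was read on FLIPRtetra for 1 min. Activity was normalized to 1 μM acetylcholine (100%) and DMSO (0%), and the curve inflection point was reported as IP.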

In the case of `NC(=O)c1ccc(CN2Cc3ccnc(Oc4ccc(C(F)(F)F)cc4F)c3C2=O)cc1F` [Example 438, 2-fluoro-4-((4-(2-fluoro-4-(trifluoromethyl)phenoxy)-3-oxo-1,3-dihydro-2H-pyrrolo[3,4-c]pyridin-2-yl)methyl)benzamide], the EC50 was found to be 0.014 µM and the “activity (%) at 10 μM” value was determined as 101%.
The like results for `CNC(=O)c1ccc(CN2Cc3cccc(Oc4ccc(C(F)(F)F)cc4F)c3C2=O)cc1` [Example 439, 4-((7-(2-fluoro-4-(trifluoromethyl)phenoxy)-1-oxo-1,3-dihydro-2H-isoindol-2-yl)methyl)-N-methylbenzamide] were, in that order, 0.013 µM and 96%.
The like results for `Cc1ccc(Oc2nccc3c2C(=O)N(Cc2ccc(C(N)=O)c(F)c2)C3)c(F)c1` [Example 440, 2-fluoro-4-((4-(2-fluoro-4-methylphenoxy)-3-oxo-1,3-dihydro-2H-pyrrolo[3,4-c]pyridin-2-yl)methyl)benzamide] were, in that order, 0.07 µM and 100%.
The like results for `CCNC(=O)c1ccc(CN2Cc3ccnc(Oc4ccc(C)cc4F)c3C2=O)c(F)c1` [Example 441, N-ethyl-3-fluoro-4-((4-(2-fluoro-4-methylphenoxy)-3-oxo-1,3-dihydro-2H-pyrrolo[3,4-c]pyridin-2-yl)methyl)benzamide] were, in that order, 0.044 µM and 100%.
As to `CNC(=O)c1ccc(CN2Cc3ccnc(Oc4ccc(Br)cc4F)c3C2=O)cc1F` [Example 442, 4-((4-(4-bromo-2-fluorophenoxy)-3-oxo-1,3-dihydro-2H-pyrrolo[3,4-c]pyridin-2-yl)methyl)-2-fluoro-N-methylbenzamide], the EC50 was determined as 0.038 µM and the “activity (%) at 10 μM” value was 100%.
The like results for `CCc1ccc(Oc2nccc3c2C(=O)N(Cc2ccc(C(=O)NC)c(F)c2)C3)c(F)c1` [Example 443] were, in that order, 0.031 µM and 101%.
The like results for `CCc1ccc(Oc2nccc3c2C(=O)N(Cc2ccc(C(=O)NC)cc2)C3)c(F)c1` [Example 444, 4-((4-(4-ethyl-2-fluorophenoxy)-3-oxo-1,3-dihydro-2H-pyrrolo[3,4-c]pyridin-2-yl)methyl)-N-methylbenzamide] were, in that order, 0.017 µM and 100%.
The like results for `CCc1ccc(Oc2nccc3c2C(=O)N(Cc2ccc(C(N)=O)c(F)c2)C3)c(F)c1` [Example 445, 4-((4-(4-ethyl-2-fluorophenoxy)-3-oxo-1,3-dihydro-2H-pyrrolo[3,4-c]pyridin-2-yl)methyl)-2-fluorobenzamide] were, in that order, 0.028 µM and 100%.
For `NC(=O)c1ccc(CN2Cc3ccnc(Oc4ccc(C5CC5)cc4F)c3C2=O)cc1F` [Example 446, 4-((4-(4-cyclopropyl-2-fluorophenoxy)-3-oxo-1,3-dihydro-2H-pyrrolo[3,4-c]pyridin-2-yl)methyl)-2-fluorobenzamide], the EC50 amounted to 0.026 µM and the “activity (%) at 10 μM” value is 107%.
Turning to `CNC(=O)c1ccc(CN2Cc3ccnc(Oc4ccc(C5CC5)cc4F)c3C2=O)cc1` [Example 447, 4-((4-(4-cyclopropyl-2-fluorophenoxy)-3-oxo-1,3-dihydro-2H-pyrrolo[3,4-c]pyridin-2-yl)methyl)-N-methylbenzamide], the EC50 is 0.0052 µM and the “activity (%) at 10 μM” value was determined as 93%.
The like results for `NC(=O)c1ccc(CN2Cc3ccnc(Oc4ccc(C5CC5)cc4F)c3C2=O)cc1` [Example 448, 4-((4-(4-cyclopropyl-2-fluorophenoxy)-3-oxo-1,3-dihydro-2H-pyrrolo[3,4-c]pyridin-2-yl)methyl)benzamide] were, in that order, 0.0061 µM and 102%.
The like results for `CCc1ccc(Oc2nccc3c2C(=O)N(Cc2ccc(C(N)=O)cc2)C3)c(F)c1` [Example 449, 4-((4-(4-ethyl-2-fluorophenoxy)-3-oxo-1,3-dihydro-2H-pyrrolo[3,4-c]pyridin-2-yl)methyl)benzamide] were, in that order, 0.0093 µM and 99%.
The like results for `CCCc1ccc(Oc2nccc3c2C(=O)N(Cc2ccc(C(N)=O)cc2)C3)c(F)c1` [Example 450, 4-((4-(2-fluoro-4-propylphenoxy)-3-oxo-1,3-dihydro-2H-pyrrolo[3,4-c]pyridin-2-yl)methyl)benzamide] were, in that order, 0.01 µM and 102%.
`CCCc1ccc(Oc2nccc3c2C(=O)N(Cc2ccc(C(=O)NC)cc2)C3)c(F)c1` [Example 451, 4-((4-(2-fluoro-4-propylphenoxy)-3-oxo-1,3-dihydro-2H-pyrrolo[3,4-c]pyridin-2-yl)methyl)-N-methylbenzamide]: the EC50 stood at 0.011 µM and the “activity (%) at 10 μM” value is given as 105%.
The like results for `CCCc1ccc(Oc2nccc3c2C(=O)N(Cc2ccc(C(N)=O)c(F)c2)C3)c(F)c1` [Example 452, 2-fluoro-4-((4-(2-fluoro-4-propylphenoxy)-3-oxo-1,3-dihydro-2H-pyrrolo[3,4-c]pyridin-2-yl)methyl)benzamide] were, in that order, 0.045 µM and 102%.
As to `CCc1ccc(Oc2nccc3c2C(=O)N(Cc2ccc(C(=O)NC)nc2)C3)c(F)c1` [Example 453, 5-((4-(4-ethyl-2-fluorophenoxy)-3-oxo-1,3-dihydro-2H-pyrrolo[3,4-c]pyridin-2-yl)methyl)-N-methylpyridine-2-carboxamide], the EC50 turned out to be 0.056 µM and the “activity (%) at 10 μM” value is recorded as 97%.
The like results for `CNC(=O)c1ccc(CN2Cc3ccnc(Oc4ccc(C5CC5)cc4F)c3C2=O)cn1` [Example 454, 5-((4-(4-cyclopropyl-2-fluorophenoxy)-3-oxo-1,3-dihydro-2H-pyrrolo[3,4-c]pyridin-2-yl)methyl)-N-methylpyridine-2-carboxamide] were, in that order, 0.03 µM and 86%.
In the case of `CCCc1ccc(Oc2nccc3c2C(=O)N(Cc2ccc(C(=O)NC)nc2)C3)c(F)c1` [Example 455, 5-((4-(2-fluoro-4-propylphenoxy)-3-oxo-1,3-dihydro-2H-pyrrolo[3,4-c]pyridin-2-yl)methyl)-N-methylpyridine-2-carboxamide], the EC50 was 0.06 µM and the “activity (%) at 10 μM” value is recorded as 86%.
The like results for `CNC(=O)c1ccc(CN2Cc3ccnc(Oc4ccc(C(F)(F)F)cc4F)c3C2=O)cn1` [Example 456, 5-((4-(2-fluoro-4-(trifluoromethyl)phenoxy)-3-oxo-1,3-dihydro-2H-pyrrolo[3,4-c]pyridin-2-yl)methyl)-N-methylpyridine-2-carboxamide] were, in that order, 0.046 µM and 91%.
The like results for `CNC(=O)c1ccc(CN2Cc3ccnc(Oc4ccc(CC(F)(F)F)cc4F)c3C2=O)cc1` [Example 457, 4-((4-(2-fluoro-4-(2,2,2-trifluoroethyl)phenoxy)-3-oxo-1,3-dihydro-2H-pyrrolo[3,4-c]pyridin-2-yl)methyl)-N-methylbenzamide] were, in that order, 0.0086 µM and 91%.
The like results for `NC(=O)c1ccc(CN2Cc3ccnc(Oc4ccc(CC(F)(F)F)cc4F)c3C2=O)cc1` [Example 458, 4-((4-(2-fluoro-4-(2,2,2-trifluoroethyl)phenoxy)-3-oxo-1,3-dihydro-2H-pyrrolo[3,4-c]pyridin-2-yl)methyl)benzamide] were, in that order, 0.012 µM and 93%.
Turning to `NC(=O)c1ccc(CN2Cc3ccnc(Oc4ccc(CC(F)(F)F)cc4F)c3C2=O)cc1F` [Example 459, 2-fluoro-4-((4-(2-fluoro-4-(2,2,2-trifluoroethyl)phenoxy)-3-oxo-1,3-dihydro-2H-pyrrolo[3,4-c]pyridin-2-yl)methyl)benzamide], the EC50 was determined as 0.032 µM and the “activity (%) at 10 μM” value was found to be 93%.
As to `NC(=O)c1ccc(CN2Cc3cccc(Oc4ccc(C(F)(F)F)cc4F)c3C2=O)cc1` [Example 460, 4-((7-(2-fluoro-4-(trifluoromethyl)phenoxy)-1-oxo-1,3-dihydro-2H-isoindol-2-yl)methyl)benzamide], the EC50 was determined as 0.017 µM and the “activity (%) at 10 μM” value came out at 96%.
For `NC(=O)c1ccc(CN2Cc3cccc(Oc4ccc(C(F)(F)F)cc4F)c3C2=O)cc1F` [Example 461, 2-fluoro-4-((7-(2-fluoro-4-(trifluoromethyl)phenoxy)-1-oxo-1,3-dihydro-2H-isoindol-2-yl)methyl)benzamide], the EC50 stood at 0.05 µM and the “activity (%) at 10 μM” value was found to be 95%.
